What was measured:
[1] = Weekly food consumption of genetically obese and normal Zucker rats; assay type: in vivo, rattes Zucker; set-up: Consommation d'aliments: unit not given here; conditions: for Consommation d'aliments: weekly, treated
From the text: (§1) Les animaux employés sont des rattes Zucker âgées de 7 à 8 semaines au début de l'expérimentation. Les animaux ont été placés en cages individuelles et recevaient ad libitum une alimentation équilibrée et vitaminée spéciale pour rats, identique pour tous les lots. La boisson était également présentée ad libitum. Les lots d'animaux ont été établis de telle sorte que le poids-de départ soit sensiblement identique pour les témoins et les traités, chaque lot comporte 6 animaux.
(§2) On a administré une dose journalière de 17,5 µg (30n mol) par 100 g. de poids corporel pendant 4 semaines. Les poids moyens des animaux traités et non traités ont été notés chaque fin de semaine chez les témoins et chez les obèses. Les résultats sont rassemblés dans le tableau ci-dessous.
Par ailleurs, la consommation hebdomadaire d'aliments a été notée et les résultats rassemblés dans le tableau ci-dessus.
Enfin le tableau suivant rassemble pour chaque semaine l'observation du rapport : • R = (consommation hebdomadaire (CH))/(gain de poids hebdomadaire (GPH)) [formula]

[2] = Magnusson and Kligman sensitisation test; assay type: in vivo, cobaye; conditions: guinea pig
From the text: De plus, un test de Manusson et Kligman a été pratiqué chez le cobaye. Ce test prédictif s'est révélé négatif, c'est-à-dire qu'aucun animal n'a montré une quelconque sensibilisation d'ordre allergique au produit.

[3] = 4-week oral treatment of hospitalised obese patients; assay type: in vivo, homme; conditions: for POIDS Après (J+30): 0,3 mg daily orally, 1 400 cal/j diet
Method: Après cet essai d'autres volontaires obèses ont été traités par l'acide 3,5-dilodo-3'-isopropyl- thyroacétique à la dose journalière de 0,3 mg en 2 prises orales durant 4 semaines. La tolérance fut surveillée très attentivement (malades hospitalisés) et fut parfaite.
Le poids des 6 patients obèses hospitalisés sous régime hypocalorique, hypoglucidique, hyperproti- dique à 1 400 cal/j et traités comme il est indiqué ci-dessus a régressé. Le tableau ci-après rassemble les résultats obtenus.

[4] = 5-day tolerance study in obese human volunteers; assay type: in vivo, homme; conditions: 5 obese volunteers, 0,3 mg daily in 3 oral doses, 5 days
Method: On a administré à un groupe de 5 volontaires obèses une dose journalière de 0,3 mg d'acide 3,5- dilodo-3'-isopropylthyroacétique en 3 prises orales, durant une première période de 5 jours durant lesquels la tolérance fut vérifiée.

Patch tests in humans = assay type: in vivo, homme; conditions: human
[5] = Acute oral toxicity (DL50) in the rat; conditions: in vivo
From the text: La toxicité de l'acide 3,5-diiodo-3'-isopropyt-thyroacétique a également été examinée sur le rat.

[6] = 30-day repeated-dose toxicity in rats at 1/5 of the DL50; assay type: in vivo
From the text: Par ailleurs, le 1/5 de la dose L 50 a été administré à 20 rats durant 30 jours, 7 jours sur 7. Aucune mort n'a été constatée. […] La formule sanguine est normale.

[7] = Blood cholesterol of the treated Zucker rats; assay type: in vivo, rattes Zucker
From the text: as §1, §2
La cholestérolémie a été dosée chez les animaux dont les courbes pondérales et de consommation alimentaire ont été rapportées ci-dessus. Les résultats sont les suivants : • Rats normaux non traités 0,9-1 g par litre (2,5 mmol par l.) • Rats normaux traités (4 semaines) 0,9-1 g par litre (2,5 mmol par 1.) • Rats génétiquement obèses non traités • 1,7-1,8 (X = 1,75) g par litre (4,51 mmol par litre) • Rats génétiquement obèses traités (4 semaines) • 1,1 g par litre (2,87 mmol par litre)

[8] = Weight gain of genetically obese and normal Zucker rats, daily gavage for 4 weeks; assay type: in vivo, rattes Zucker
From the text: On a notamment étudié les effets de l'acide 3,5-diiodo-3'-isopropyl-thyroacétique sur la prise de poids de la ratte génétiquement obèse, par administration au moyen d'une sonde oesophagienne et en comparaison avec des rattes normales.
as §1, §2

[9] = 6 obese patients, 0,3 mg daily, 4 weeks

## CC(C)c1cc(Oc2c(I)cc(CC(=O)O)cc2I)ccc1O [acide 3,5-diiodo-3'-isopropyl-thyroacétique]
[1]; normal animals
  consommation alimentaire: ne modifie pas la consommation alimentaire
[1]; obese animals
  consommation alimentaire: réduit celle des animaux obèses
[1]; rat, concluded from the ratio weekly consumption / weekly weight gain
  effet anorexigène: aucun effet anorexigène
[1]; normal Zucker rats (Témoins), day 7, initial mean consumption 78
  Consommation d'aliments: 83
[1]; normal Zucker rats (Témoins), day 14, initial mean consumption 78
  Consommation d'aliments: 112
[1]; normal Zucker rats (Témoins), day 21, initial mean consumption 78
  Consommation d'aliments: 120
[1]; normal Zucker rats (Témoins), day 28, initial mean consumption 78
  Consommation d'aliments: 118
[1]; obese Zucker rats (Obèses), day 7, initial mean consumption 118
  Consommation d'aliments: 124
[1]; obese Zucker rats (Obèses), day 14, initial mean consumption 118
  Consommation d'aliments: 131
[1]; obese Zucker rats (Obèses), day 21, initial mean consumption 118
  Consommation d'aliments: 148
[1]; obese Zucker rats (Obèses), day 28, initial mean consumption 118
  Consommation d'aliments: 142
[2]
  sensibilisation d'ordre allergique: négatif
[3]; [9]
  taux de cholestérol sanguin: notablement été abaissé
  transaminases, phosphatases, uricémie, créatinurie: aucune modification
[3]; 6 obese patients, 4 weeks, the patent attributes the effect probably to the diet
  glycémie: a diminué également de manière significative
[3]; obese humans, statement in words
  poids: baisse de poids très substantielle
[3]; obese patient 1, before (J-0) 115
  POIDS Après (J+30): 107
[3]; obese patient 2, before (J-0) 108
  POIDS Après (J+30): 101
[3]; obese patient 3, before (J-0) 97
  POIDS Après (J+30): 89
[3]; obese patient 4, before (J-0) 103
  POIDS Après (J+30): 93
[3]; obese patient 5, before (J-0) 85
  POIDS Après (J+30): 81
[3]; obese patient 6, before (J-0) 111
  POIDS Après (J+30): 104
[3]; obese volunteers, hospitalised, 0,3 mg daily in 2 oral doses, 4 weeks
  tolérance: parfaite
[4]
  tolérance: tension artérielle, rythme cardiaque, transaminases et phosphatases, glucose, urée sanguine, créatinine urinaire: aucun paramètre n'a subi de modification
Patch tests in humans
  patchtests: n'était pas allergogène
[5]
  observation of behaviour and growth: aucun trouble de comportement ni de croissance
[5]; po, solution by oesophageal tube, 12 animals
  LD50 at 336 h: 5.4 mg/kg
[6]; 20 rats, 1/5 of the DL50 daily for 30 days
  mortality: Aucune mort
[6]; rat, in vivo
  autopsy, macroscopic state of the organs: aucun organe n'était macroscopiquement modifié à l'exception d'une légère pâleur des thyroïdes
  composantes biochimiques principales, glycémie, uricémie, urémie: évoluent dans les limites habituelles à l'espèce
  formule sanguine: normale
  histologie du foie, rate, rein, thyroïde, surénales: n'a rien révélé d'anormal
[7]; animals with normal cholesterol level
  taux de cholestérol: n'a pas d'effet
[7]; genetically obese rats treated 4 weeks, untreated obese rats 1,7-1,8
  cholestérolémie: 1,1 g par litre
[7]; genetically obese rats treated 4 weeks, untreated obese rats 4,51
  cholestérolémie: 2,87 mmol par litre
[7]; hypercholesterolemic animals
  taux de cholestérol: baisser sensiblement
[7]; normal rats treated 4 weeks, untreated normal rats 0,9-1
  cholestérolémie: 0,9-1 g par litre
[7]; normal rats treated 4 weeks, untreated normal rats 2,5
  cholestérolémie: 2,5 mmol par 1.
[8]; genetically obese Zucker rats (Obèses), treated, 17,5 µg per 100 g daily, day 7, initial mean weight 135 g
  Poids moyens: 148 g
[8]; genetically obese Zucker rats (Obèses), treated, 17,5 µg per 100 g daily, day 14, initial mean weight 135 g
  Poids moyens: 168 g
[8]; genetically obese Zucker rats (Obèses), treated, 17,5 µg per 100 g daily, day 21, initial mean weight 135 g
  Poids moyens: 190 g
[8]; genetically obese Zucker rats (Obèses), treated, 17,5 µg per 100 g daily, day 28, initial mean weight 135 g
  Poids moyens: 206 g
[8]; genetically obese Zucker rats, 17,5 µg per 100 g body weight
  prise de poids: ralentit la prise de poids
[8]; normal Zucker rats (Témoins), treated, 17,5 µg per 100 g body weight daily by gavage, day 7, initial mean weight 102 g
  Poids moyens: 119 g
[8]; normal Zucker rats (Témoins), treated, 17,5 µg per 100 g daily, day 14, initial mean weight 102 g
  Poids moyens: 137 g
[8]; normal Zucker rats (Témoins), treated, 17,5 µg per 100 g daily, day 21, initial mean weight 102 g
  Poids moyens: 152 g
[8]; normal Zucker rats (Témoins), treated, 17,5 µg per 100 g daily, day 28, initial mean weight 102 g
  Poids moyens: 163 g
[8]; normal Zucker rats, 17,5 µg per 100 g body weight
  croissance: ne modifie pas significativement la croissance
